Results from patent US7125990B2, “Imidazolyl derivatives as corticotropin releasing factor inhibitors” (Bristol-Myers Squibb COmpany, priority 2001, dated 2006).

Molecular target: T1, CRF1 receptors (Homo sapiens, UniProt P34998)
T1 construct: endogenous in cells; host or cells: IMR-32 cells, transformed with 2.5 µM 5'-bromo-2'-deoxyuridine for 10 days; membrane preparation
T1 sequence (P34998 24-415): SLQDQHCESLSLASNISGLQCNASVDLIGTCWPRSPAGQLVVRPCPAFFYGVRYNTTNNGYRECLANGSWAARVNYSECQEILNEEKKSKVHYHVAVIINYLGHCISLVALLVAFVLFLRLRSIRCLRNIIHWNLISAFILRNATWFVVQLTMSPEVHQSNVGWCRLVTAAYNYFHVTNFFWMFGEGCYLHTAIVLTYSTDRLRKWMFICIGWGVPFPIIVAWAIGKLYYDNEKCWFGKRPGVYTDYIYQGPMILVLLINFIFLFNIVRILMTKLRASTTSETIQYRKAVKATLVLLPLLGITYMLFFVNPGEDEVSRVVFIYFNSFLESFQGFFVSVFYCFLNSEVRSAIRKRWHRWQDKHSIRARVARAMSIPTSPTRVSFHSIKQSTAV
Assay: CRF1 receptor radioligand binding assay ([125I]-oCRF competition, IMR-32 cell membranes)
Conditions: IMR-32 cell membranes, [125I]-oCRF 100 pM; read-out: Ki (CRF-1R)
Procedure, shortened: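 Buffer: Tris pH 7.2 with MgCl2, BSA, Triton X-100, aprotinin, leupeptin; reaction stopped with ice-cold wash and filtered. Nonspecific binding set with 10 μM oCRF.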

CCCN(Cc1c(CC)nc2n(-c3c(C)cc(C)cc3C)c3ncccc3n12)CC1CC1 [Example 247, Cyclopropylmethyl-[2-ethyl-8-(2,4,6-trimethyl-phenyl)-8H-1,3a,7,8-tetraaza-cyclopenta[α]inden-3-ylmethyl]-propyl-amine]
Ki: < 100 nM

CCc1nc2n(-c3c(C)cc(C)cc3C)c3ncccc3n2c1CN(CC)CCc1ccccc1 [Example 248, Ethyl-[2-ethyl-8-(2,4,6-trimethyl-phenyl)-8H-1,3a,7,8-tetraaza-cyclopenta[α]inden-3-ylmethyl]-phenethyl-amine]
Ki: < 100 nM

C=CCN(CCC)Cc1c(CC)nc2n(-c3c(C)cc(C)cc3C)c3ncccc3n12 [Example 249, Allyl-[2-ethyl-8-(2,4,6-trimethyl-phenyl)-8H-1,3a,7,8-tetraaza-cyclopenta[α]inden-3-ylmethyl]-propyl-amine]
Ki: < 100 nM

CCc1nc2n(-c3c(C)cc(C)cc3C)c3ncccc3n2c1CN(CC)CC1CC1 [Example 250, Cyclopropylmethyl-ethyl-[2-ethyl-8-(2,4,6-trimethyl-phenyl)-8H-1,3a,7,8-tetraaza-cyclopenta[α]inden-3-ylmethyl]-amine]
Ki: < 1000 nM

C=CCN(CC=C)Cc1c(CC)nc2n(-c3c(C)cc(C)cc3C)c3ncccc3n12 [Example 251, Diallyl-[2-ethyl-8-(2,4,6-trimethyl-phenyl)-8H-1,3a,7,8-tetraaza-cyclopenta[α]inden-3-ylmethyl]-amine]
Ki: < 1000 nM

CCCN(CCC1CC1)Cc1c(CC)nc2n(-c3c(C)cc(C)cc3C)c3ncccc3n12 [Example 252, (2-Cyclopropyl-ethyl)-[2-ethyl-8-(2,4,6-trimethyl-phenyl)-8H-1,3a,7,8-tetraaza-cyclopenta[α]inden-3-ylmethyl]-propyl-amine]
Ki: < 1000 nM

CCC(CC)NCc1c(C)nc2n(-c3c(C)cc(C)cc3Cl)c3ncccc3n12 [Example 279, [8-(2-Chloro-4,6-dimethyl-phenyl)-2-methyl-8H-1,3a,7,8-tetraaza-cyclopenta[α]inden-3-ylmethyl]-(1-ethyl-propyl)-amine]
Ki: < 10000 nM

CCCN(CC1CC1)C(=O)c1c(C)nc2n(-c3c(C)cc(C)cc3C)c(Cl)cn12 [Example 283, 6-Chloro-2-methyl-7-(2,4,6-trimethyl-phenyl)-7H-imidazo[1,2-a]imidazole-3-carboxylic acid cyclopropylmethyl-propyl-amide]
Ki: < 100 nM

CCCN(Cc1c(C)nc2n(-c3c(C)cc(C)cc3C)c(Cl)cn12)CC1CC1 [Example 284, [6-Chloro-2-methyl-7-(2,4,6-trimethyl-phenyl)-7H-imidazo[1,2-a]imidazol-3-ylmethyl]-cyclopropylmethyl-propyl-amine]
Ki: < 100 nM

CCCN(CC1CC1)C(=O)c1c(CC)nc2n(-c3ccc(C(C)C)cc3Br)c(Cl)cn12 [Example 285, 6-Chloro-2-ethyl-7-(2-bromo-4-isopropylphenyl)-7H-imidazo[1,2-a]imidazole-3-carboxylic acid N-cyclopropylmethyl-N-propylamide]
Ki: < 1000 nM

CCc1nc2n(-c3ccc(Cl)cc3Cl)c(Cl)cn2c1C(=O)N(CC1CC1)CC(F)(F)F [Example 286, 6-Chloro-2-ethyl-7-(2,4-dichlorophenyl)-7H-imidazo[1,2-a]imidazole-3-carboxylic acid N-cyclopropylmethyl-N-(2,2,2-trifluoroethyl)amide]
Ki: < 10 nM

CCCN(CCC)C(=O)c1c(CC)nc2n(-c3ccc(Cl)cc3Cl)c(Cl)cn12 [Example 287, 6-Chloro-2-ethyl-7-(2,4-dichlorophenyl)-7H-imidazo[1,2-a]imidazole-3-carboxylic acid N,N-dipropylamide]
Ki: < 10 nM

CCCN(CCC)Cc1c(CC)nc2n(-c3ccc(Cl)cc3Cl)c(Cl)cn12 [Example 288, 3-[(N,N-Dipropylamino)methyl]-6-chloro-2-ethyl-7-(2,4-diclorophenyl)-7H-imidazo[1,2-a]imidazole]
Ki: < 100 nM

CCc1nc2n(-c3ccc(Cl)cc3Cl)c(Cl)cn2c1CN(CC1CC1)CC(F)(F)F [Example 289, 3-[(N-Cyclopropylmethyl-N-(2,2,2-trifluoroethyl)amino)methyl]-6-chloro-2-ethyl-7-(2,4-diclorophenyl)-7H-imidazo[1,2-a]imidazole]
Ki: < 100 nM

CCCN(CC1CC1)C(=O)c1c(CC)nc2n(-c3c(C)cc(C)cc3C)c(Cl)cn12 [Example 290, 6-Chloro-2-ethyl-7-(2,4,6-trimethylphenyl)-7H-imidazo[1,2-a]imidazole-3-carboxylic acid N-cyclopropylmethyl-N-propylamide]
Ki: < 100 nM

CCCCN(CC)C(=O)c1c(CC)nc2n(-c3c(C)cc(C)cc3C)c(Cl)cn12 [Example 291, 6-Chloro-2-ethyl-7-(2,4,6-trimethylphenyl)-7H-imidazo[1,2-a]imidazole-3-carboxylic acid N-butyl-N-ethylamide]
Ki: < 100 nM

CCCN(CCC)C(=O)c1c(CC)nc2n(-c3c(C)cc(C)cc3C)c(Cl)cn12 [Example 292, 6-Chloro-2-ethyl-7-(2,4,6-trimethylphenyl)-7H-imidazo[1,2-a]imidazole-3-carboxylic acid N,N-dipropylamide]
Ki: < 100 nM

CCc1nc2n(-c3c(C)cc(C)cc3C)c(Cl)cn2c1C(=O)N(CC)CC [Example 293, 6-Chloro-2-ethyl-7-(2,4,6-trimethylphenyl)-7H-imidazo[1,2-a]imidazole-3-carboxylic acid N,N-diethylamide]
Ki: < 1000 nM

CCCCN(CC)Cc1c(CC)nc2n(-c3c(C)cc(C)cc3C)c(Cl)cn12 [Example 294, 3-[(N-Butyl-N-ethylamino)methyl]-6-chloro-2-ethyl-7-(2,4,6-trimethylphenyl)-7H-imidazo[1,2-a]imidazole]
Ki: < 1000 nM

C=CCN(CC=C)C(=O)c1c(CC)nc2n(-c3c(C)cc(C)cc3C)c(Cl)cn12 [Example 295, 6-Chloro-2-ethyl-7-(2,4,6-trimethylphenyl)-7H-imidazo[1,2-a]imidazole-3-carboxylic acid N,N-diallylamide]
Ki: < 1000 nM

CCc1nc2n(-c3c(C)cc(C)cc3C)c(Cl)cn2c1C(=O)N(CC1CC1)CC(F)(F)F [Example 296, 6-Chloro-2-ethyl-7-(2,4,6-trimethylphenyl)-7H-imidazo[1,2-a]imidazole-3-carboxylic acid N-cyclopropylmethyl-N-(2,2,2-trifluoroethyl)amide]
Ki: < 10 nM

CCc1nc2n(-c3c(C)cc(C)cc3C)c(Cl)cn2c1C(=O)N(CC)Cc1ccncc1 [Example 297, 6-Chloro-2-ethyl-7-(2,4,6-trimethylphenyl)-7H-imidazo[1,2-a]imidazole-3-carboxylic acid N-ethyl-N-(pyridin-4-yl)methylamide]
Ki: < 1000 nM

CCc1nc2n(-c3c(C)cc(C)cc3C)c(Cl)cn2c1C(=O)N(CC)CC1CC1 [Example 298, 6-Chloro-2-ethyl-7-(2,4,6-trimethylphenyl)-7H-imidazo[1,2-a]imidazole-3-carboxylic acid N-cyclopropylmethyl-N-ethylamide]
Ki: < 10 nM

CCc1nc2n(-c3c(C)cc(C)cc3C)c(Cl)cn2c1CN(CC)CC1CC1 [Example 299, 3-[(N-Cyclopropylmethyl-N-ethylamino)methyl]-6-chloro-2-ethyl-7-(2,4,6-trimethylphenyl)-7H-imidazo[1,2-a]imidazole]
Ki: < 100 nM

CCc1nc2n(-c3c(C)cc(C)cc3C)c(Cl)cn2c1C(=O)N1CC(C)CC(C)C1 (stereo not shown) [Example 300]
Ki: < 100 nM

CCCN(CC1CC1)C(=O)c1c(C)nc2n1CC(=O)N2c1c(C)cc(C)cc1C [Example 301, 2-Methyl-6-oxo-7-(2,4,6-trimethyl-phenyl)-6,7-dihydro-5H-imidazo[1,2-a]imidazole-3-carboxylic acid cyclopropylmethyl-propyl-amide]
Ki: < 1000 nM

CCCN(CC1CC1)C(=O)c1c(C(F)(F)F)nc2n(-c3c(C)cc(C)cc3C)c(Cl)cn12 [Example 302, 6-Chloro-2-trifluoromethyl-7-(2,4,6-trimethyl-phenyl)-7H-imidazo[1,2-a]imidazole-3-carboxylic acid cyclopropylmethyl-propyl-amide]
Ki: < 100 nM

CCCN(Cc1c(C(F)(F)F)nc2n(-c3c(C)cc(C)cc3C)c(Cl)cn12)CC1CC1 [Example 303, [6-Chloro-2-trifluoromethyl-7-(2,4,6-trimethyl-phenyl)-7H-imidazo[1,2-a]imidazol-3-ylmethyl]-cyclopropylmethyl-propyl-amine]
Ki: < 10 nM

Cc1cc(C)c(-n2c(Cl)cn3c(CN(CC4CC4)CC(F)(F)F)c(C(F)(F)F)nc23)c(C)c1 [Example 304, [6-Chloro-2-trifluoromethyl-7-(2,4,6-trimethyl-phenyl)-7H-imidazo[1,2-a]imidazol-3-ylmethyl]-cyclopropylmethyl-(2,2,2-trifluoro-ethyl)-amine]
Ki: < 10 nM

Cc1cc(C)c(-n2c(Cl)cn3c(CN4CC=CCC4)c(C(F)(F)F)nc23)c(C)c1 [Example 305, 2-Chloro-5-(3,6-dihydro-2H-pyridin-1-ylmethyl)-6-trifluoromethyl-1-(2,4,6-trimethyl-phenyl)-1H-imidazo[1,2-a]imidazole]
Ki: < 1000 nM

Cc1cc(C)c(-n2c(Cl)cn3c(CN4CCSCC4)c(C(F)(F)F)nc23)c(C)c1 [Example 306, 2-Chloro-5-thiomorpholin-4-ylmethyl-6-trifluoromethyl-1-(2,4,6-trimethyl-phenyl)-1H-imidazo[1,2-a]imidazole]
Ki: < 1000 nM
